Marks after values point to notes of the source that are not given here.
Experiments:
Type in all cases: physicochemical
[1] = Stability of vitamins in 35% glucose solution during sterilization (Cycles 1-4) and storage; conditions: for concentration, T1M40° C. / concentration, T3M40° C. / concentration, Cycle 3 T0 / concentration, T6M40° C., sum of cyanocobalamin and hydroxocobalamin / concentration, Cycle 4 T0 / concentration, Unsterilized T0 / concentration, T6M40° C.: 35% glucose solution; for concentration, T1M40° C.: 1 month 40° C.; for concentration, T3M40° C.: 3 months 40° C.; for concentration, Cycle 3 T0: Cycle 3 (water spray sterilization, Co = 25 minutes); for concentration, Cycle 3 T0 / concentration, Cycle 4 T0: after sterilization; for concentration, T6M40° C., sum of cyanocobalamin and hydroxocobalamin / concentration, T6M40° C.: 6 months 40° C.; for concentration, Cycle 4 T0: Cycle 4 (water spray sterilization, Co = 19 minutes); for concentration, Unsterilized T0: before sterilization
Description: (§1) For testing the stability of vitamin B12 in formulation as they are typically used in parenteral nutrition, a 35% glucose solution, a 14.2% amino acid formulation such as found, for example, in Olimel N9E (Baxter Int. Inc.), and a 20% lipid emulsion such as found in Clinoleic 20% (Baxter Int. Inc.) were supplemented with different vitamins combinations which always included vitamin B12. KC1 was added into the glucose solution to understand if it has an effect on the stability of vitamin B12. Vitamin B12 was introduced as […]. Ascorbyl palmitate was added to the lipid emulsion formulation as a stabilizing agent due to its antioxidant properties. In addition, two separate micellar solutions (“Vit A” and “Vit B”, see Table 5) comprising certain vitamins to be assessed with regard to degradation (B3, B6, B8, B9, B12, C) but formulated with different excipients as micellization agents were tested for vitamin B12 stability. Vit A consisted of a solution of mixed micelles with ascorbyl palmitate as a potential stability enhancer. Vit B was formulated with a mix of polysorbates, PEG and sorbitol to form micelles. The micellar solutions were prepared by mixing, under high speed, a solution composed of glycocholic acid and lecithins dissolved in water. In case of Vit B, the glycocholic acid and lecithin were replaced by PEG and polysorbate. All formulations were provided in standard flexible containers and overpouched with an aluminum overpouch for subsequent sterilization. For an overview over formulations and conditions see Table 5.
(§2) All samples were submitted to two different sterilization technologies. Steam sterilization targeting a Fo=8 min was. used for large volumes (400/800 ml, Cycle 2) and for small volumes (25/50 ml, Cycle 1) as lined out in Table 5 above. The same samples were sterilized by water spray sterilization with a serial tower continuous sterilization equipment with two different exposure times (Cycles 3 (25 min.) and 4 (19 min.)).
(§3) The vitamin recovery was then compared between the different sterilization cycles and formulations to understand the impact of the formulation and the sterilization technology used on their respective short- and long-term stability. Therefore, after sterilization, the samples were stored at 40° C./[…] for 6 months to evaluate the recovery of vitamin B12 at TIM, T3M and T6M. Besides, backup samples were stored at 5° C. Finally, some samples were also stored at 25° C./40% RH to provide for real time stability data.

[2] = Studies of cyanocobalamin in lipid emulsions (summary statement)
Description: (storage for 3 months at 40° C.), even though hydroxocobalamin seems to remain relatively stable for about 6 months at 40° C.

[3] = Stability of vitamin B12 in 20% lipid emulsion with ascorbyl palmitate during sterilization (Cycles 1-4) and storage; conditions: for concentration, T1M40° C.: 1 month 40° C.; for concentration, T6M40° C., sum of cyanocobalamin and hydroxocobalamin: 6 months 40° C.
Description: as §1, §2, §3
Vitamin B12 was also considerably degraded in the lipid emulsion (Tables 8 through 11). […] It should thus be avoided in formulations according to the invention.

[4] = Cycle 1 (steam sterilization), 25 ml
[5] = Cycle 2 (steam sterilization), 800 ml

Compound	concentration, T1M40° C. [1, 4] [ng/mL]	concentration, T3M40° C. [1, 4] [ng/mL]	concentration, T1M40° C. [1, 5] [ng/mL]	concentration, T3M40° C. [1, 5] [ng/mL]	concentration, Cycle 3 T0 [1] [ng/mL]	concentration, T3M40° C. ([1]; Cycle 3 (water spray)) [ng/mL]	concentration, Cycle 4 T0 ([1]; 800 ml) [ng/mL]	concentration, T3M40° C. ([1]; Cycle 4 (water spray)) [ng/mL]	concentration, Unsterilized T0 ([1]; Table 6A (25 ml)) [ng/mL]	concentration, Unsterilized T0 ([1]; Table 6B (800 ml)) [ng/mL]	concentration, Unsterilized T0 ([1]; Table 7A) [ng/mL]	concentration, Unsterilized T0 ([1]; Table 7B, 800 ml) [ng/mL]	concentration, T6M40° C. ([1]; Cycle 3 (water spray)) [ng/mL]	concentration, T6M40° C. ([1]; Cycle 4 (water spray)) [ng/mL]	further results
cyanocobalamin	–	–	–	–	–	–	–	–	–	–	–	–	–	–	cyanocobalamin detection after 6 months ([1]; glucose solution, Cycles 1 and 2 (steam sterilization), FIG. 2): no cyanocobalamin can be detected; cyanocobalamin detection ([2]; lipid emulsions irrespective of oil source, pH or stabilizing agent, T3M40° C.): no more cyanocobalamin can be detected
cobalamin [Batch B12]	4.5	3.7	4	3.6	5.1	4.1	5.2	4.1	6.2	6.2	6	6	–	–	concentration, T6M40° C., sum of cyanocobalamin and hydroxocobalamin ([1]; Cycle 3 (water spray)): 0.0023* mg/L; concentration, T6M40° C., sum of cyanocobalamin and hydroxocobalamin ([1]; Cycle 4 (water spray)): 0.0031* mg/L; concentration, Unsterilized T0 ([3]; 20% lipid emulsion with ascorbyl palmitate, Table 8, before sterilization): 15 ng/mL; concentration, T1M40° C. ([3]; 20% lipid emulsion, Cycle 1 (steam sterilization)): 4 ng/mL; concentration, T3M40° C. ([3]; 20% lipid emulsion, Cycle 1 (steam sterilization), 3 months 40° C.): <LOD; concentration, T1M40° C. ([3]; 20% lipid emulsion, Cycle 2 (steam sterilization)): <LOD; concentration, Cycle 2 T0 ([3]; 20% lipid emulsion, Cycle 2 (steam sterilization), after sterilization): 5 ng/mL; concentration, Cycle 3 T0 ([3]; 20% lipid emulsion, Cycle 3 (water spray sterilization), after sterilization): 5 ng/mL; concentration, T6M40° C., sum of cyanocobalamin and hydroxocobalamin ([3]; 20% lipid emulsion, Cycle 3 (water spray)): 3.7 ng/mL; concentration, Unsterilized T0 ([3]; 20% lipid emulsion, Table 10, before sterilization): 14 ng/mL; concentration, Unsterilized T0 ([3]; 20% lipid emulsion, Table 11, before sterilization): 14 ng/mL; concentration, T0 after sterilization ([3]; 20% lipid emulsion, Table 11, head 'Cycle 3', water spray sterilization with serial tower continuous equipment): 6 ng/mL; concentration, T6M40° C., sum of cyanocobalamin and hydroxocobalamin ([3]; 20% lipid emulsion, Table 11, head 'Cycle 3', water spray): 5.5 ng/mL
C/C1=C2/[N-][C@H]([C@H](CC(N)=O)[C@@]2(C)CCC(=O)NC[C@@H](C)OP(=O)([O-])O[C@H]2[C@@H](O)[C@@H](n3cnc4cc(C)c(C)cc43)O[C@@H]2CO)[C@]2(C)N=C(/C(C)=C3N=C(/C=C4N=C1[C@@H](CCC(N)=O)C\4(C)C)[C@@H](CCC(N)=O)[C@]\3(C)CC(N)=O)[C@@H](CCC(N)=O)[C@]2(C)CC(N)=O.[Co+3].[OH-] [hydroxocobalamin]	–	–	–	–	–	–	–	–	–	–	–	–	–	–	time hydroxocobalamin remains relatively stable ([2]; lipid emulsions, 40° C.): about 6 months
Cc1ncc(CO)c(CO)c1O [Batch B6, Pyridoxine]	6400	6500	5930	6000	6230	6100	6270	5900	6400	6400	6610	6610	6040	6030	–
O=C(O)c1cccnc1 [Batch B3, niacin]	49300	50200	50600	51200	50500	50300	50400	51000	51100	51100	52800	52800	48270	49350	–

— patent US20260232717A1, “PARENTERAL NUTRITION FORMULATION COMPRISING VITAMIN B12” (BAXTER INTERNATIONAL INC., priority 2020, published 2026)
